Assay results from patent US20130005699A1, “METHODS AND PRODUCTS FOR TREATMENT OF DISEASES” (DMI ACQUISITION CORP., priority 2009, published 2013).
Where two headings read alike, the source gives them in different places.

Assays:
[1] = system: HUVECs; test: HUVEC scratch migration assay; assay type: cell-based, human; settings: for Mean pixels (gap): 24 hours, diluent control 1264.00
Method: Passage 8 HUVECs, lot number 8750 (obtained from Lonza), were plated in 6-well plates (ICS BioExpress) in endothelial growth medium-2 (EGM-2) complete medium (obtained from Lonza). […] The monolayers were then “scratched” with a 1000 μl pipet tip and washed two times with warm EGM-2 medium. […] The wells were photographed again. The gaps were measured in each photograph using Adobe Photoshop software, and gap measurements are presented as the number of pixels in the gap.

[2] = system: human retinal endothelial cells; test: TER of endothelial cell monolayers (Example 4), retinal; assay type: cell-based; settings: Danazol 1.0 μM, TER measurements/cm^2 of insert, blank subtracted
Method: […]. Assays were also performed in the same manner using passage 8 human brain endothelial cells and passage 8 human umbilical vein endothelial cells.
An initial TER measurement was taken for each insert using EVOM^2 voltohmmeter connected to an STX100 electrode (both from World Precision Instruments). Measurements were also taken at 24, 48, 72 and 144 hours. All data are presented as TER measurements/cm^2 of insert with TER of blank inserts subtracted.

[3] = system: human retinal endothelial cells; test: ECIS resistance (Example 12), retinal cells
[4] = system: human retinal endothelial cells; test: Actin stress fiber formation (Example 11), retinal cells; settings: for F-actin staining pattern: danazol 1 μM alone
[5] = system: Primary human umbilical vein endothelial cells (HUVECs); test: HUVEC cell proliferation (Celltiter 96 AQueous One Solution assay); assay type: cell-based
Method: Primary human umbilical vein endothelial cells (HUVECs) and EGM-2 growth medium were obtained from Cambrex (Walkersville, Md.). The cells were passaged in medium supplemented with 2% fetal calf serum (FCS) in tissue culture flasks at 37° C. and 5% CO2. Subculturing was performed using trypsin when 60-80% confluence was obtained as specified by the supplier.
Cryopreserved ampoules of passage 2 HUVECs were thawed and plated in 96 well tissue culture plates at 5,000 cells/cm^2. […] In short, medium was aspirated from each well and the cells were washed with 200 μl […] (HBSS) from Cambrex warmed to 37° C. 100 μl diluted celltiter solution (15 μl stock+85 μl EGM-2 containing 0.1% FCS) were added to each well and incubated for an additional 4 hours. Optical density was determined by microplate reader using a 530 nm filter after blank subtraction and data presented as OD±standard deviation.
All data are presented as representative experiment done in triplicate. Differences between subsets were analyzed using student t-test in Microsoft Excel. P<0.05 was considered statistically significant.

[6] = system: human retinal endothelial cells; test: Actin stress fiber formation, rhodamine-phalloidin staining, VEGF (Example 8); assay type: cell-based; settings: for change of the VEGF stress fiber pattern: then VEGF 25 ng/ml 30 minutes; for F-actin staining pattern: no VEGF
Method: . […] To counter-stain for nuclei, 100 μl of a 3 μM DAPI (4,6-diamidino-2-phenylindole, dilactate (Invitrogen)) solution was added to each well. After 5 minutes, the cells were washed two times with 100 μl PBS.

[7] = system: HUVECs; test: HUVEC tube formation on matrigel plugs; assay type: cell-based, human; settings: 18 hours, 5% FCS
Method: To investigate the formation of capillary-like structures by HUVECs, the Angiogenesis System Endothelial Cell Tube Formation Assay was purchased from BD Biosciences (San Jose, Calif.) and used according to the manufacturer's protocol. In brief, 100,000 HUVECs were seeded onto rehydrated matrigel plugs in 96 well tissue culture plates in the presence of 5% FCS to induce tube formation. […] After 18 hours the wells were photographed using a Kodak DCS Pro SLR/N digital camera (Rochester, N.Y.) mounted on an inverted microscope. Ethanol treated wells were included to determine if the vehicle had any effects on cell differentiation.

[8] = Homo sapiens, HUVEC, 24 h, read-out: percent inhibition
[9] = Homo sapiens, HUVEC, 48 h, read-out: percent inhibition
[10] = Homo sapiens, HUVEC, 72 h, read-out: inhibition

`C#C[C@]1(O)CC[C@H]2[C@@H]3CCC4=Cc5oncc5C[C@]4(C)[C@H]3CC[C@@]21C` [Danazol, 17α-pregna-2,4-dien-20-yno[2,3-d]-isoxazol-17β-ol] was tested, and the “Mean pixels (gap)” value ([1]; Danazol 10 μM) was 1004.00 pixels, the “Mean pixels (gap)” value ([1]; Danazol 25 μM) was 1184.00 pixels and the “Mean pixels (gap)” value ([1]; Danazol 50 μM) was 895.33 pixels. The “Mean pixels (gap)” value ([1]; Danazol 75 μM) was 317.33 pixels, the “Mean pixels (gap)” value ([1]; Danazol 100 μM) was 178.67 pixels and the inhibition at 10 µM ([1]; Homo sapiens, HUVEC, 24 h) was 21.1%. It also gave an inhibition at 25 µM ([1]; Homo sapiens, HUVEC, 24 h) of 5.5%, an inhibition at 50 µM ([1]; Homo sapiens, HUVEC, 24 h) of 27.6% and an inhibition at 75 µM ([1]; Homo sapiens, HUVEC, 24 h) of 74.6%. The inhibition at 100 µM ([1]; Homo sapiens, HUVEC, 24 h) was 85.9%, the “TER at 0 Hours” value ([2]; None 32.3) was 21.7 and the “TER at 24 Hours” value ([2]; None 96.0) was 132.3. The “TER at 48 Hours” value ([2]; None 144.4) was 182.3, the “TER at 72 Hours” value ([2]; None 148.0) was 217.7 and the “TER at 144 Hours” value ([2]; None 219.7) was 234.8. The “start of increase of ECIS compared to untreated cells, after treatment” value ([3]; 1.0 μM danazol alone) was 1.5 to 2.0 h, the “persistence of increased ECIS” value ([3]; 1 μM of each compound, monitored for 90 hours) was 5 h and the F-actin staining pattern ([4]; 15 minutes) was “perinuclear staining”. For the same compound, the F-actin staining pattern ([4]; 3 hours) was “diffuse staining throughout the cells with ruffled edges on many of the cells”, the F-actin staining pattern ([4]; 24 hours) was “staining similar to untreated controls” and the “effect on S1P-induced cortical actin rings” value ([4]; danazol 1 μM with S1P 1 μM) was “seemed to enhance the cortical rings at 3 hours”. The “effect on TNFα-induced stress fibers” value ([4]; danazol 1 μM with TNFα 1 ng/ml, all times) was “decreased the stress fiber formation and/or the thickness of the fibers at all times”, the OD ([5]; 0.1 μM danazol, 72 hours, nil wells 1.113±0.054) was 0.798±0.037 and the OD ([5]; 1 μM danazol, 48 hours, nil 0.629±0.095) was 0.378±0.037. For the same compound, the OD ([5]; 1 μM danazol, 72 hours, nil wells 1.113±0.054) was 0.484±0.022, the OD ([5]; 10 μM danazol, 24 hours, nil wells 0.414±0.06) was 0.288±0.037 and the OD ([5]; 10 μM danazol, 48 hours, nil 0.629±0.095) was 0.241±0.012. The OD ([5]; 10 μM danazol, 72 hours, nil wells 1.113±0.054) was 0.229±0.016, the OD ([5]; 100 μM danazol, 24 hours, nil wells 0.414±0.06) was 0.162±0.017 and the OD ([5]; 100 μM danazol, 48 hours, nil 0.629±0.095) was 0.19±0.033. The OD ([5]; 100 μM danazol, 72 hours, nil wells 1.113±0.054) was 0.156±0.018, the “effect on cell proliferation” value ([5]; 100 μM danazol, all time points) was “complete arrest of cell proliferation” and the inhibition at 10 µM [5, 8] was 30%. For the same compound, the inhibition at 100 µM [5, 8] was 65%, the inhibition at 1 µM [5, 9] was 40% and the inhibition at 10 µM [5, 9] was 61%. The inhibition at 100 µM [5, 9] was 70%, the inhibition at 0.1 µM ([5]; Homo sapiens, HUVEC, 72 h) was 28% and the inhibition at 1 µM [5, 10] was 57%. For the same compound, the inhibition at 10 µM [5, 10] was 80%, the inhibition at 100 µM [5, 10] was 86% and the “change of the VEGF stress fiber pattern” value ([6]; danazol 0.1 μM 30 minutes) was “made the stress fibers less pronounced and some diffuse staining appeared”. The F-actin staining pattern ([6]; danazol 0.1 μM) was “diffuse F-actin staining throughout the cytoplasm”, the “change of the VEGF stress fiber pattern” value ([6]; danazol 1.0 μM 30 minutes) was “showed fewer thick stress fibers, but focal points were seen on contact surfaces” and the F-actin staining pattern ([6]; danazol 1.0 μM) was “the diffuse staining persisted, but stress fibers and focal points around the perimeter of most cells were visible”. The “change of the VEGF stress fiber pattern” value ([6]; danazol 10.0 μM 30 minutes) was “showed strong stress fiber development with focal points”, the F-actin staining pattern ([6]; danazol 10.0 μM) was “stress fiber development and focal points were seen” and the “effect on tube formation” value ([7]; 1 μM) was “no effect on tube formation”. The “effect on tube formation” value ([7]; 10 μM) was “no effect on tube formation” and the “effect on tube formation” value ([7]; 50 μM) was “effective inhibitor of tube formation”.
